Here are results for one molecule from patent publication US9359322B2, “C-linked glucuronide of N-(4-hydroxybenzyl) retinone, analogs thereof, and methods of using the same to inhibit neoplastic cell growth” (Wisconsin Alumni Research Foundation, priority 2005, dated 2016).

SMILES strings stand for the structures.

In assay [1] the test system is MCF-7 human breast cancer cells. Put plainly: Growth inhibition of MCF-7 human breast cancer cells. Type of assay: cell-based. Conditions: 10^−5 M, 8-day period. The procedure: Inhibition of MCF-7 human breast cancer cell growth over an 8-day period was used as a means to assess the activity of 4-HBRCG and the analog 4-HBRCGlucose.
Growth inhibition of MCF-7 human breast cancer cells. MCF-7 cells were obtained from the American Type Culture Collection, Manassas, Va. They were maintained in DMEM medium supplemented with 4 g/L glucose, 3.7 g/L sodium bicarbonate and 10% heat-inactivated fetal calf serum. Cells were passaged into 12-well plates, cultured for 24 hours, after which time they were dosed with vehicle (0.2% ethanol) or retinoids; medium was changed and fresh vehicle or retinoids were added daily. Cells were harvested and the number of live cells was assessed using fluorescein diacetate, which yields a fluorescent product upon cleavage by metabolically active cells. Using fluorescent microscopy, at least 200 cells/well were counted with a hemacytometer.

The target of another assay is T1, RXRγ (Homo sapiens, UniProt P48443).
T1 sequence (P48443 1-463): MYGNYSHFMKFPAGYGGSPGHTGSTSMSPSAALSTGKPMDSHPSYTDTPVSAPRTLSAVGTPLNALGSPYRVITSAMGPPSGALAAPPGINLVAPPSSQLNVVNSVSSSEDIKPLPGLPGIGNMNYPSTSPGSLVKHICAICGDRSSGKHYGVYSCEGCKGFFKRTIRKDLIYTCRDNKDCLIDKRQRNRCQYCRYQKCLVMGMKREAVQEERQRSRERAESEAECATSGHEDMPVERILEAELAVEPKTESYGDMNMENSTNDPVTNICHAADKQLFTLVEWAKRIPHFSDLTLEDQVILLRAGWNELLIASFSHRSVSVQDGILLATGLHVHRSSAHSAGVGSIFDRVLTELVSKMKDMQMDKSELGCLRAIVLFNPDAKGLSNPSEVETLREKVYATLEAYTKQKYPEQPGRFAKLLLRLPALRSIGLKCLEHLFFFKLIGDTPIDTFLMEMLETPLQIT
Description: Nuclear retinoid receptor binding assay, competition with [3H]9-cis RA. The settings on record: 4-HBRCG up to 10^−4.5 M; data not shown. The procedure: (§1) Nuclear Retinoid Receptor Binding Assay. Competition of 3 and 7 and 4-HBRCGlucose with [^3H]-all-trans-RA (4.2-4.6 nM) for binding to RARβ and RARγ and with [^3H]-9-cis RA (1.9 nM) for binding to RXRγ was determined using an in vitro ligand binding assay.^41, 42 [^3H]-all-trans-RA (40.5 Ci/mmole) or [^3H]-9-cis-RA (69.4 Ci/mmole) was added to receptor-containing extracts in the absence and presence of increasing concentrations of competing ligands at 4° C. for 3 hr. A hydroxylapatite (HAP) assay was used to separate ligand bound to receptor from that free in solution, and the radioactivity associated with the HAP pellet was measured by scintillation counting.

The next assay has as its target T2, RARβ (Homo sapiens, UniProt P10826).
T2 sequence (P10826 1-455): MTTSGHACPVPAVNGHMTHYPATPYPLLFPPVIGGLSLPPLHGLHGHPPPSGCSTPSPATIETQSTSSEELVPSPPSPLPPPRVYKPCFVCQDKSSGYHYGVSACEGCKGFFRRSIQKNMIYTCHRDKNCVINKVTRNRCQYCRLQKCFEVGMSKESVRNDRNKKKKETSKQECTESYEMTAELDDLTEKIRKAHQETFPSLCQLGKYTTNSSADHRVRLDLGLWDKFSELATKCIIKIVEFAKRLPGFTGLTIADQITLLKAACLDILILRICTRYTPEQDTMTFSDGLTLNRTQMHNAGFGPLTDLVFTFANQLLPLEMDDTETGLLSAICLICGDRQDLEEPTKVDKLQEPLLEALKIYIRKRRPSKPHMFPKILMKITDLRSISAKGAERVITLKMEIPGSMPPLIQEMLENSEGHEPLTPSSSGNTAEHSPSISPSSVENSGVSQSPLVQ
Put plainly: Nuclear retinoid receptor binding assay, competition with [3H]all-trans RA. Conditions: FIG. 3A. The procedure: as §1

The target in a further assay is T3, RARγ (Homo sapiens, UniProt P13631).
T3 sequence (P13631 1-454): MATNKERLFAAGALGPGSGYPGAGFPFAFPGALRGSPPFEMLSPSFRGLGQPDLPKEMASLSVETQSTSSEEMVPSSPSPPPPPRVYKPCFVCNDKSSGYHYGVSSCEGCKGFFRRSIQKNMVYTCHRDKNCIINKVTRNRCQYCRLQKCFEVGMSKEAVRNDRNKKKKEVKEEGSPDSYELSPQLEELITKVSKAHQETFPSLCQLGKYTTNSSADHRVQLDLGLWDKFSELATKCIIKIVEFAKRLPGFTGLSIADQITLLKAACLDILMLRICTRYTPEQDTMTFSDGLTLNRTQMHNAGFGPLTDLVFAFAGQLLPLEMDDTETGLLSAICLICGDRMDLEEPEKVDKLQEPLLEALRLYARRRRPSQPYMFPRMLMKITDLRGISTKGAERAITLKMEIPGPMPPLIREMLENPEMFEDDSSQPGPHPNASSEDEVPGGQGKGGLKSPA
The description is as above. The settings on record: FIG. 3B. On the procedure: as §1

The next assay addresses T4, RARα (Homo sapiens, UniProt P10276).
T4 sequence (P10276 1-462): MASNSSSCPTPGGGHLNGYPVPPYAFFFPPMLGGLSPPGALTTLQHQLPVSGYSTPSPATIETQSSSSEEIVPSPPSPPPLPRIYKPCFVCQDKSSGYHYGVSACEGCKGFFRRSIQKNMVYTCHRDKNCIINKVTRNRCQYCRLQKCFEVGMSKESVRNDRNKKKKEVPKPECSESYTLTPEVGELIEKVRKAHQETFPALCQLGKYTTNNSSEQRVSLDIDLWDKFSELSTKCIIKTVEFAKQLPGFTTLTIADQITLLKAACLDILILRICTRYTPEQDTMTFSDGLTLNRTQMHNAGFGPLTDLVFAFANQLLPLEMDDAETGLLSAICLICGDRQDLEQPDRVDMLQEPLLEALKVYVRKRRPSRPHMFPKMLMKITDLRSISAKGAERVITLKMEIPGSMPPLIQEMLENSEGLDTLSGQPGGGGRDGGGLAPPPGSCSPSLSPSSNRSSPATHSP
Put plainly: Nuclear retinoid receptor binding assay. Conditions: 4-HBRCG up to 10^−4.5 M; data not shown.

Turning to `CC1=C(/C=C/C(C)=C/C=C/C(C)=C/C(=O)Cc2ccc(C[C@@H]3O[C@H](CO)[C@@H](O)[C@H](O)[C@H]3O)cc2)C(C)(C)CCC1` [4-HBRCGlucose, 2,6-Anhydro-7-deoxy-7-[4-(retinoylmethyl)-phenyl]-D-glycero-D-gulo-heptinol], the “State of MCF-7 cells at end of assay” value in assay [1] is on record as “the majority of the MCF-7 cells were dead at the end of the assay”. Further, the “Effect on number of live MCF-7 cells” value in assay [1] (FIG. 5) is listed as “reduction in the number of live cells”. In addition, on RXRγ, the “Competition for [3H]9-cis RA binding to RXR” value was “binds poorly”. The “Binding to RARβ” value on RARβ is reported as “binds poorly”. Further, the “Binding to RARγ” value at RARγ was “binds poorly”. Also, the “Binding to RARα” value at RARα is given as “binds poorly”.
